# Measured values: US20130303575A1, “ADMINISTRATION OF AN INHIBITOR OF HDAC” (priority 2007, published 2013)
# Entries after “also recorded” stand apart in the source; their conditions may differ. Marks after values point to notes of the source that are not given here.
# Test: Safety, DLT, MTD and adverse events in patients with advanced solid tumors or lymphoma (Example 2)
# Type: in vivo
# Description: DLT was defined as first course adverse events […] hematologic toxicity. The MTD was defined as one dose level below the dose at which […] of six patients experienced DLT.
# Dose reduction by one level was applied for the occurrence of either grade 3 nonhematologic toxicity, grade 4 hematologic toxicity, persistent (≦2 weeks) grade 2 nonhematologic toxicity, or per the investigator's assessment. […] No limitation for the number of dose reductions was chosen.
# At study entry, history, physical examination, laboratory studies (CBC, electrolytes, creatinine, blood urea nitrogen, total and direct bilirubin, ALT, AST, alkaline phosphatase, uric acid, prothrombin time, partial thromboplastin time, and urinalysis), computed tomography scan and chest x-ray and ECG were performed. Clinical assessments, including a physical examination and adverse event evaluation, were conducted at each follow-up. Adverse events were graded by the NCI Common Toxicity Criteria (version 2.0). Computed tomography scans and staging was performed every 6 weeks for the q14-day schedule. Disease-specific staging techniques, such as bone marrow aspirate and biopsy, flow cytometry, cutaneous lesion photography, or bone scan were used as indicated. Response evaluations used the Response Evaluation Criteria in Solid Tumors and the Cheson criteria for lymphoma. Multiple-gated acquisition (MUGA) scans were obtained on the q14-day schedule at base line, before course 2 and at each restaging. Laboratory studies (CBC with differential, chemistry 20, prothrombin time and […] thromboplastin time) were performed on days 1, 3, 5, 7 and repeated weakly.
compound,measurement,setting,value
"Nc1ccccc1NC(=O)c1ccc(CNC(=O)OCc2cccnc2)cc1 [SNDX-275, N-(2-aminophenyl) 4-[N-(pyrid-3-yl)methyloxycarbonylaminomethyl]benzamide]",DLTs,"Every 14 days, 2 mg/m^2",0
same,No. of Patients With First Course DLT,"Every 14 days, 2 mg/m^2",0
same,DLTs,"Every 14 days, 4 mg/m^2",0
same,No. of Patients With First Course DLT,"Every 14 days, 4 mg/m^2",0
same,No. of Patients With First Course DLT,"Every 14 days, 6 mg/m^2",1
same,DLTs,"Every 14 days, 6 mg/m^2, anorexia, nausea, and vomiting",3†
same,DLTs,"Every 14 days, 8 mg/m^2",0
same,No. of Patients With First Course DLT,"Every 14 days, 8 mg/m^2",0
same,No. of Patients With First Course DLT,"Every 14 days, 10 mg/m^2",1
same,DLTs,"Every 14 days, 10 mg/m^2, anorexia, nausea, and vomiting",3†
same,No. of Patients With First Course DLT,"Every 14 days, 12 mg/m^2",2
same,DLTs,"Every 14 days, 12 mg/m^2, anorexia, nausea, vomiting, and fatigue",7‡
same,No. of Patients With First Course DLT,"Every day x 28/42 days, 2 mg/m^2, 2 patients",2
same,MTD,"daily schedule (once-a-day×28 every 6 weeks), first dose level 2 mg/m^2",exceeded at the first dose level
same,Abdominal pain: % (All Grades),"human, in vivo",7%
same,Anemia: No. of Patients (All Grades),"human, in vivo",8
same,Anorexia: % (All Grades),"human, in vivo",36%
same,Anorexia: Grade 3,"human, in vivo",4
same,Anorexia: No. of Patients (All Grades),"human, in vivo",10
same,Bilirutin: % (All Grades),"human, in vivo",14%
same,Bilirutin: No. of Patients (All Grades),"human, in vivo",4
same,Chest pain: % (All Grades),"human, in vivo",7%
same,Chest pain: No. of Patients (All Grades),"human, in vivo",2
same,Constipation: % (All Grades),"human, in vivo",7%
same,Constipation: No. of Patients (All Grades),"human, in vivo",2
same,Hypermagnesemia: No. of Patients (All Grades),"human, in vivo",2
same,Hypoalbuminemia: % (All Grades),"human, in vivo",64%
same,Hypoalbuminemia: No. of Patients (All Grades),"human, in vivo",18
same,Hypocalcemia: % (All Grades),"human, in vivo",21%
same,Hypocalcemia: No. of Patients (All Grades),"human, in vivo",6
same,Hypokalemia: % (All Grades),"human, in vivo",4%
same,Hypokalemia: No. of Patients (All Grades),"human, in vivo",1
same,Hyponatremia: % (All Grades),"human, in vivo",25%
same,Hyponatremia: No. of Patients (All Grades),"human, in vivo",7
same,Infection w/o neutropenia: % (All Grades),"human, in vivo",7%
same,Infection w/o neutropenia: Grade 3,"human, in vivo",0
same,Infection w/o neutropenia: No. of Patients (All Grades),"human, in vivo",2
same,Leucopenia: % (All Grades),"human, in vivo",21%
same,Leucopenia: No. of Patients (All Grades),"human, in vivo",6
same,Libido: % (All Grades),"human, in vivo",4%
same,Libido: Grade 3,"human, in vivo",0
same,Libido: No. of Patients (All Grades),"human, in vivo",1
same,Myalgia: Grade 3,"human, in vivo",0
same,Myalgia: No. of Patients (All Grades),"human, in vivo",1
same,Nail changes: % (All Grades),"human, in vivo",4%
same,Nail changes: Grade 3,"human, in vivo",0
same,Nail changes: No. of Patients (All Grades),"human, in vivo",1
same,Nausea: % (All Grades),"human, in vivo",64%
same,Nausea: Grade 3,"human, in vivo",4
same,Nausea: No. of Patients (All Grades),"human, in vivo",18
same,Neurosensory deficits: % (All Grades),"human, in vivo",7%
same,Neurosensory deficits: No. of Patients (All Grades),"human, in vivo",2
same,Sinus Tachycardia: No. of Patients (All Grades),"human, in vivo",1
same,Stomatitis: % (All Grades),"human, in vivo",4%
same,Stomatitis: No. of Patients (All Grades),"human, in vivo",1
same,Sweating: % (All Grades),"human, in vivo",4%
same,Sweating: Grade 3,"human, in vivo",0
same,Sweating: No. of Patients (All Grades),"human, in vivo",1
same,Taste disturbance: % (All Grades),"human, in vivo",29%
same,Taste disturbance: Grade 3,"human, in vivo",0
same,Taste disturbance: No. of Patients (All Grades),"human, in vivo",8
same,tolerability,"human, in vivo, po",intolerable
same,MTD (and recommended phase II dose),q14-day schedule,10 mg/m^2
same,SNDX-275-related first course grade 4 adverse events,q14-day schedule,no SNDX-275-related first course grade 4 adverse events
same,dose-limiting toxicities,q14-day schedule,"nausea, vomiting, anorexia and fatigue; also recorded: anorexia, nausea, vomiting and fatigue"
same,tolerability,q14-day schedule,reasonably well-tolerated
same,Abdominal pain: No. of Patients (All Grades),"q14-day schedule, first course",2
same,Alkaline phosphatase: % (All Grades),"q14-day schedule, first course",4%
same,Alkaline phosphatase: No. of Patients (All Grades),"q14-day schedule, first course",1
same,Allergic reaction: % (All Grades),"q14-day schedule, first course",4%
same,Allergic reaction: Grade 3,"q14-day schedule, first course",0
same,Allergic reaction: No. of Patients (All Grades),"q14-day schedule, first course",1
same,Anemia: % (All Grades),"q14-day schedule, first course",29%
same,Cough: % (All Grades),"q14-day schedule, first course",4%
same,Cough: No. of Patients (All Grades),"q14-day schedule, first course",1
same,Creatinine: % (All Grades),"q14-day schedule, first course",7%
same,Creatinine: No. of Patients (All Grades),"q14-day schedule, first course",2
same,Dehydration: % (All Grades),"q14-day schedule, first course",11%
same,Dehydration: Grade 3,"q14-day schedule, first course",0
same,Dehydration: No. of Patients (All Grades),"q14-day schedule, first course",3
same,Depression: % (All Grades),"q14-day schedule, first course",4%
same,Depression: Grade 3,"q14-day schedule, first course",0
same,Depression: No. of Patients (All Grades),"q14-day schedule, first course",1
same,Diarrhea: % (All Grades),"q14-day schedule, first course",7%
same,Diarrhea: No. of Patients (All Grades),"q14-day schedule, first course",2
same,Dyspepsia: % (All Grades),"q14-day schedule, first course",21%
same,Dyspepsia: No. of Patients (All Grades),"q14-day schedule, first course",6
same,Fatigue: % (All Grades),"q14-day schedule, first course",54%
same,Fatigue: Grade 3,"q14-day schedule, first course",1
same,Fatigue: No. of Patients (All Grades),"q14-day schedule, first course",15
same,Fever: % (All Grades),"q14-day schedule, first course",4%
same,Fever: Grade 3,"q14-day schedule, first course",0
same,Fever: No. of Patients (All Grades),"q14-day schedule, first course",1
same,Flatulence: % (All Grades),"q14-day schedule, first course",11%
same,Flatulence: No. of Patients (All Grades),"q14-day schedule, first course",3
same,GI other: % (All Grades),"q14-day schedule, first course",7%
same,GI other: No. of Patients (All Grades),"q14-day schedule, first course",2
same,Headache: % (All Grades),"q14-day schedule, first course",50%
same,Headache: Grade 3,"q14-day schedule, first course",0
same,Headache: No. of Patients (All Grades),"q14-day schedule, first course",14
same,Hyperglycemia: % (All Grades),"q14-day schedule, first course",11%
same,Hyperglycemia: No. of Patients (All Grades),"q14-day schedule, first course",3
same,Hypermagnesemia: % (All Grades),"q14-day schedule, first course",7%
same,Lymphopenia: % (All Grades),"q14-day schedule, first course",18%
same,Lymphopenia: No. of Patients (All Grades),"q14-day schedule, first course",5
same,Middle ear infection: % (All Grades),"q14-day schedule, first course",4%
same,Middle ear infection: Grade 3,"q14-day schedule, first course",0
same,Middle ear infection: No. of Patients (All Grades),"q14-day schedule, first course",1
same,Muscle weakness: % (All Grades),"q14-day schedule, first course",4%
same,Muscle weakness: Grade 3,"q14-day schedule, first course",0
same,Muscle weakness: No. of Patients (All Grades),"q14-day schedule, first course",1
same,Myalgia: % (All Grades),"q14-day schedule, first course",4%
same,Neutropenia: % (All Grades),"q14-day schedule, first course",25%
same,Neutropenia: No. of Patients (All Grades),"q14-day schedule, first course",7
same,Pain other: % (All Grades),"q14-day schedule, first course",4%
same,Pain other: No. of Patients (All Grades),"q14-day schedule, first course",1
same,Pleuretic pain: % (All Grades),"q14-day schedule, first course",4%
same,Pleuretic pain: No. of Patients (All Grades),"q14-day schedule, first course",1
same,Rhinitis: % (All Grades),"q14-day schedule, first course",4%
same,Rhinitis: No. of Patients (All Grades),"q14-day schedule, first course",1
same,Sinus Tachycardia: % (All Grades),"q14-day schedule, first course",3%
same,Thrombooytopenia: % (All Grades),"q14-day schedule, first course",36%
same,Thrombooytopenia: No. of Patients (All Grades),"q14-day schedule, first course",10
same,Tremors: % (All Grades),"q14-day schedule, first course",4%
same,Tremors: No. of Patients (All Grades),"q14-day schedule, first course",1
same,Urinary electrolyte wasting: % (All Grades),"q14-day schedule, first course",11%
same,Urinary electrolyte wasting: No. of Patients (All Grades),"q14-day schedule, first course",3
same,Vomiting: % (All Grades),"q14-day schedule, first course",39%
same,Vomiting: Grade 3,"q14-day schedule, first course",4
same,Vomiting: No. of Patients (All Grades),"q14-day schedule, first course",11
